Measurements taken from ChEMBL document CHEMBL4325868, “Design, synthesis and antitubercular activity of 4-alkoxy-triazoloquinolones able to inhibit the M. tuberculosis DNA gyrase” (Eur J Med Chem, 2019).
≈ marks a conversion by molar mass, not a printed value.

System: Mycobacterium tuberculosis
Test: Antitubercular activity against Mycobacterium tuberculosis H37Rv after 7 days by resazurin microtiter assay
Format: functional
Conditions: 168 h

Going from `CCn1cc(C(=O)O)c(=O)c2cc(OC)c3nn(C)nc3c21` to `COc1cc2c(=O)c(C(=O)O)cn(C)c2c2nn(C)nc12`, the MIC falls from greater than 100 µM to 27.8 µM (≈ 8.01 µg/mL).

Compared with `O=C(O)c1cn(C2CC2)c2cc(N3CCNCC3)c(F)cc2c1=O` [CIPROFLOXACIN], `Cn1cc(C(=O)O)c(=O)c2cc(F)c3c(nnn3C)c21` is 39-fold higher in MIC: 1.5 µM (≈ 0.497 µg/mL) for the first, 57.9 µM (≈ 16 µg/mL) for the second.

`CCOC(=O)c1cn(CC)c2c(cc(OCC)c3c2nnn3C)c1=O` and `CCOC(=O)c1cn(CC)c2c(cc(OC)c3c2nnn3C)c1=O` cannot be ordered by MIC: greater than 100 µM for the first, greater than 100 µM for the second.

`COc1cc2c(=O)c(C(=O)O)cn(C)c2c2nnn(C)c12` and `CCOc1cc2c(=O)c(C(=O)O)cn(C)c2c2nnn(C)c12` are within 1.5-fold of each other in MIC: 6.9 µM (≈ 1.99 µg/mL) for the first, 6.6 µM (≈ 2 µg/mL) for the second.

`COc1c(C(=O)O)cnc2c1cc(OC)c1nnn(C)c12` and `CCOc1c(C(=O)O)cnc2c1cc(OC)c1nnn(C)c12` cannot be ordered by MIC: greater than 100 µM for the first, greater than 100 µM for the second.

`COC(=O)c1cn(C)c2c(ccc3c2nnn3C)c1=O` and `CCOC(=O)c1cn(C)c2c(cc(OC)c3c2nnn3C)c1=O` cannot be ordered by MIC: greater than 100 µM for the first, greater than 100 µM for the second.

`COc1cc2c(=O)c(C(=O)O)c[nH]c2c2c1nnn2C` and `COc1cc2c(=O)c(C(=O)O)c[nH]c2c2nnn(C)c12` cannot be ordered by MIC: greater than 100 µM for the first, greater than 100 µM for the second.

Going from `CCOC(=O)c1cn(CC)c2c(cc(OC)c3nn(C)nc32)c1=O` to `CCn1cc(C(=O)O)c(=O)c2cc(OC)c3c(nnn3C)c21`, the MIC falls from greater than 100 µM to 52.9 µM (≈ 16 µg/mL).

First: CCn1cc(C(=O)O)c(=O)c2cc(F)c3c(nnn3C)c21
Second: CCOc1cc2c(=O)c(C(=O)O)cn(CC)c2c2nnn(C)c12
The MIC of the first is higher: greater than 100 µM for the first, 25.3 µM (≈ 8 µg/mL) for the second.

`CCOC(=O)c1cnc2c(cc(OC)c3nnn(C)c32)c1OC` and `CCOC(=O)c1cnc2c(cc(OC)c3nnn(C)c32)c1OCC` cannot be ordered by MIC: greater than 100 µM for the first, greater than 100 µM for the second.

First: CCSc1cc2c(=O)c(C(=O)O)cn(C)c2c2nnn(C)c12
Second: Cn1cc(C(=O)O)c(=O)c2cc([N+](=O)[O-])c3c(nnn3C)c21
The MIC of the first is lower: 50.3 µM (≈ 16 µg/mL) for the first, greater than 100 µM for the second.

System: not listed separately
Test: Cytotoxicity against African green monkey Vero cells assessed as cell viability at 100 uM after 72 hrs by MTT assay relative to control
Format: cell-based
Conditions: chlorocebus sabaeus, read-out: Activity

Going from `CCn1cc(C(=O)O)c(=O)c2cc(OC)c3nn(C)nc3c21` to `COc1cc2c(=O)c(C(=O)O)cn(C)c2c2nn(C)nc12`, the viability at 72 h, 100 µM falls from 94.2% to 89.5%.

First: O=C(O)c1cn(C2CC2)c2cc(N3CCNCC3)c(F)cc2c1=O [CIPROFLOXACIN]
Second: Cn1cc(C(=O)O)c(=O)c2cc(F)c3c(nnn3C)c21
The viability at 72 h, 100 µM of the first is higher: 95.2% for the first, 81.2% for the second.

Going from `CCOC(=O)c1cn(CC)c2c(cc(OCC)c3c2nnn3C)c1=O` to `CCOC(=O)c1cn(CC)c2c(cc(OC)c3c2nnn3C)c1=O`, the viability at 72 h, 100 µM falls from 95.1% to 84.4%.

Going from `COc1cc2c(=O)c(C(=O)O)cn(C)c2c2nnn(C)c12` to `CCOc1cc2c(=O)c(C(=O)O)cn(C)c2c2nnn(C)c12`, the viability at 72 h, 100 µM rises from 90.4% to 94.3%.

Going from `COc1c(C(=O)O)cnc2c1cc(OC)c1nnn(C)c12` to `CCOc1c(C(=O)O)cnc2c1cc(OC)c1nnn(C)c12`, the viability at 72 h, 100 µM falls from 85.7% to 83.6%.

Going from `COC(=O)c1cn(C)c2c(ccc3c2nnn3C)c1=O` to `CCOC(=O)c1cn(C)c2c(cc(OC)c3c2nnn3C)c1=O`, the viability at 72 h, 100 µM rises from 91.2% to 92%.

Going from `COc1cc2c(=O)c(C(=O)O)c[nH]c2c2c1nnn2C` to `COc1cc2c(=O)c(C(=O)O)c[nH]c2c2nnn(C)c12`, the viability at 72 h, 100 µM falls from 92.9% to 90.2%.

Compared with `CCOC(=O)c1cn(CC)c2c(cc(OC)c3nn(C)nc32)c1=O`, `CCn1cc(C(=O)O)c(=O)c2cc(OC)c3c(nnn3C)c21` is higher in viability at 72 h, 100 µM: 79.3% for the first, 90.1% for the second.

First: CCn1cc(C(=O)O)c(=O)c2cc(F)c3c(nnn3C)c21
Second: CCOc1cc2c(=O)c(C(=O)O)cn(CC)c2c2nnn(C)c12
The viability at 72 h, 100 µM of the first is higher: 95.1% for the first, 92.1% for the second.

Going from `CCOC(=O)c1cnc2c(cc(OC)c3nnn(C)c32)c1OC` to `CCOC(=O)c1cnc2c(cc(OC)c3nnn(C)c32)c1OCC`, the viability at 72 h, 100 µM rises from 80.8% to 85.4%.

Going from `CCSc1cc2c(=O)c(C(=O)O)cn(C)c2c2nnn(C)c12` to `Cn1cc(C(=O)O)c(=O)c2cc([N+](=O)[O-])c3c(nnn3C)c21`, the viability at 72 h, 100 µM rises from 87.7% to 88.8%.

System: Mycobacterium tuberculosis
Test: Antitubercular activity against Mycobacterium tuberculosis isolate 231 after 7 days by resazurin microtiter assay
Format: functional
Conditions: isolate 231, 168 h

For `COc1cc2c(=O)c(C(=O)O)cn(C)c2c2nnn(C)c12`, the MIC was 4 µM (≈ 1.15 µg/mL).

System: Mycobacterium tuberculosis
Test: Antitubercular activity against Mycobacterium tuberculosis isolate 1574 after 7 days by resazurin microtiter assay
Format: functional
Conditions: isolate 1574, 168 h

`COc1cc2c(=O)c(C(=O)O)cn(C)c2c2nnn(C)c12` gave an MIC of 32 µM (≈ 9.22 µg/mL).

System: Mycobacterium tuberculosis
Test: Antitubercular activity against Mycobacterium tuberculosis isolate 1777 after 7 days by resazurin microtiter assay
Format: functional
Conditions: isolate 1777, 168 h

Work on `COc1cc2c(=O)c(C(=O)O)cn(C)c2c2nnn(C)c12` yielded an MIC of 8 µM (≈ 2.31 µg/mL).

System: Mycobacterium tuberculosis
Test: Antitubercular activity against Mycobacterium tuberculosis isolate 147 after 7 days by resazurin microtiter assay
Format: functional
Conditions: isolate 147, 168 h

Compound `COc1cc2c(=O)c(C(=O)O)cn(C)c2c2nnn(C)c12` has an MIC of 8 µM (≈ 2.31 µg/mL).

System: Mycobacterium tuberculosis
Test: Antitubercular activity against Mycobacterium tuberculosis isolate 1657 after 7 days by resazurin microtiter assay
Format: functional
Conditions: isolate 1657, 168 h

`COc1cc2c(=O)c(C(=O)O)cn(C)c2c2nnn(C)c12` gave an MIC of 4 µM (≈ 1.15 µg/mL).

System: Mycobacterium tuberculosis
Test: Antitubercular activity against Mycobacterium tuberculosis isolate 1535 after 7 days by resazurin microtiter assay
Format: functional
Conditions: isolate 1535, 168 h

Compound `COc1cc2c(=O)c(C(=O)O)cn(C)c2c2nnn(C)c12` has an MIC of 16 µM (≈ 4.61 µg/mL).

System: Mycobacterium tuberculosis
Test: Antitubercular activity against Mycobacterium tuberculosis isolate 1567 after 7 days by resazurin microtiter assay
Format: functional
Conditions: isolate 1567, 168 h

`COc1cc2c(=O)c(C(=O)O)cn(C)c2c2nnn(C)c12` showed an MIC of 32 µM (≈ 9.22 µg/mL).

Molecular target: DNA gyrase subunit A/DNA gyrase subunit B (Mycobacterium tuberculosis (strain ATCC 25618 / H37Rv), UniProt P9WG45+P9WG47)
Sequence (P9WG45 whole entry): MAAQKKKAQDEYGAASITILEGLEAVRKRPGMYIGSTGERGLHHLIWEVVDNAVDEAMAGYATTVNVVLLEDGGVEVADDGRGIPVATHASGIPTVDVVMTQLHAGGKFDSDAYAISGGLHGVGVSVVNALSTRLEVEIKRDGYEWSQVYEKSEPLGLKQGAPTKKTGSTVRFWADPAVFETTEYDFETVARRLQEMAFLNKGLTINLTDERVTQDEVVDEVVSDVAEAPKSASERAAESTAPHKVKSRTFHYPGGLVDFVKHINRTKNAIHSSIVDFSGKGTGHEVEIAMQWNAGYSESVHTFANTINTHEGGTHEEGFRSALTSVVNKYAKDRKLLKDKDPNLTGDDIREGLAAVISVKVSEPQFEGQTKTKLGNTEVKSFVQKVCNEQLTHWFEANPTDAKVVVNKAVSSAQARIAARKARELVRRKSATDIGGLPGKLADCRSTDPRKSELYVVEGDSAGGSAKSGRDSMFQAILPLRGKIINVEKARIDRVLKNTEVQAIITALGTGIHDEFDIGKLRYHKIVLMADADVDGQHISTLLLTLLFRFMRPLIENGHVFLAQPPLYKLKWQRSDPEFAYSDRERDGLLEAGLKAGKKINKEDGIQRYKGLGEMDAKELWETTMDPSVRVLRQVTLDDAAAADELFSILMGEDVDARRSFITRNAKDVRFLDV
Sequence (P9WG47 whole entry): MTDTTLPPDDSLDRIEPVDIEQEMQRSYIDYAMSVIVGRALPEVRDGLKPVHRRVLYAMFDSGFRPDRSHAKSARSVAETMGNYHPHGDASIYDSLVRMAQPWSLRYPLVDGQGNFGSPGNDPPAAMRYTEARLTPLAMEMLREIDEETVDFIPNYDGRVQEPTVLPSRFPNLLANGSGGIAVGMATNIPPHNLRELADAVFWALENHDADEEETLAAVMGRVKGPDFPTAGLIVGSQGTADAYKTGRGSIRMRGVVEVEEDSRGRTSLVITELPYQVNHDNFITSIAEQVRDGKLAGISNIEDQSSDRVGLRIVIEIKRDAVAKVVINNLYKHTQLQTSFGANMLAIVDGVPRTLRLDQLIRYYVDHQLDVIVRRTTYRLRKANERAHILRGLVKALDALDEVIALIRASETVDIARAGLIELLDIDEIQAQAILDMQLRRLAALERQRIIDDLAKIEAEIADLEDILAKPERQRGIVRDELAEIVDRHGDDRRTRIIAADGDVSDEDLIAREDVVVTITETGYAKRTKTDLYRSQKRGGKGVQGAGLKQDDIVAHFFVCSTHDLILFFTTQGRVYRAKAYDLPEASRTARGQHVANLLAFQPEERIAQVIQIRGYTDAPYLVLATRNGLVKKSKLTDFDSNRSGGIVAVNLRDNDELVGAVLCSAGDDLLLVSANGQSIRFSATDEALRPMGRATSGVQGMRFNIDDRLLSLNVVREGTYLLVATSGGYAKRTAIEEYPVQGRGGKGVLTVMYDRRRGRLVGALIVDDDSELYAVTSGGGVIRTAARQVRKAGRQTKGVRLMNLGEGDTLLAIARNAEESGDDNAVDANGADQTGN
Test: Inhibition of Mycobacterium tuberculosis DNA gyrase assessed as reduction in supercoiling of relaxed pBR322 DNA substrate after 30 mins by ethidium bromide staining based agarose gel electrophoresis method
Format: protein-complex assay
Conditions: not given

`COc1cc2c(=O)c(C(=O)O)cn(C)c2c2nnn(C)c12` and `CCOc1cc2c(=O)c(C(=O)O)cn(C)c2c2nnn(C)c12` are within 1.5-fold of each other in IC50: 27.6 µM for the first, 28.2 µM for the second.

`COc1cc2c(=O)c(C(=O)O)c[nH]c2c2nnn(C)c12` gave an IC50 of 91.3 µM.

System: Staphylococcus aureus
Test: Antibacterial activity against Staphylococcus aureus ATCC 2913 after overnight incubation by broth dilution assay
Format: functional
Conditions: not given

`COc1cc2c(=O)c(C(=O)O)cn(C)c2c2nnn(C)c12` and `CCOc1cc2c(=O)c(C(=O)O)cn(C)c2c2nnn(C)c12` cannot be ordered by MIC: greater than 100 µM for the first, greater than 100 µM for the second.

System: Salmonella typhimurium
Test: Antibacterial activity against Salmonella typhimurium ATCC 14028 after overnight incubation by broth dilution assay
Format: functional, Salmonella enterica subsp. enterica serovar Typhimurium
Conditions: Salmonella enterica

`COc1cc2c(=O)c(C(=O)O)cn(C)c2c2nnn(C)c12` and `CCOc1cc2c(=O)c(C(=O)O)cn(C)c2c2nnn(C)c12` cannot be ordered by MIC: greater than 100 µM for the first, greater than 100 µM for the second.

System: Enterococcus faecalis
Test: Antibacterial activity against Enterococcus faecalis ATCC 2491 after overnight incubation by broth dilution assay
Format: functional
Conditions: not given

`COc1cc2c(=O)c(C(=O)O)cn(C)c2c2nnn(C)c12` and `CCOc1cc2c(=O)c(C(=O)O)cn(C)c2c2nnn(C)c12` cannot be ordered by MIC: greater than 100 µM for the first, greater than 100 µM for the second.

System: Escherichia coli
Test: Antibacterial activity against Escherichia coli ATCC 15922 after overnight incubation by broth dilution assay
Format: functional
Conditions: not given

`COc1cc2c(=O)c(C(=O)O)cn(C)c2c2nnn(C)c12` and `CCOc1cc2c(=O)c(C(=O)O)cn(C)c2c2nnn(C)c12` cannot be ordered by MIC: greater than 100 µM for the first, greater than 100 µM for the second.

System: Candida albicans
Test: Antifungal activity against Candida albicans after overnight incubation by broth dilution assay
Format: functional
Conditions: not given

`COc1cc2c(=O)c(C(=O)O)cn(C)c2c2nnn(C)c12` and `CCOc1cc2c(=O)c(C(=O)O)cn(C)c2c2nnn(C)c12` cannot be ordered by MIC: greater than 100 µM for the first, greater than 100 µM for the second.

System: Candida tropicalis
Test: Antifungal activity against Candida tropicalis after overnight incubation by broth dilution assay
Format: functional
Conditions: not given

`COc1cc2c(=O)c(C(=O)O)cn(C)c2c2nnn(C)c12` and `CCOc1cc2c(=O)c(C(=O)O)cn(C)c2c2nnn(C)c12` cannot be ordered by MIC: greater than 100 µM for the first, greater than 100 µM for the second.
